In BigSolDB 2.1:

CN1CCC(N(Cc2cccs2)c2ccccc2)CC1
solubility (mole fraction)
Settings | 278.15 K | 283.15 K | 288.15 K | 293.15 K | 298.15 K | 303.15 K | 308.15 K | 313.15 K | 318.15 K | 323.15 K
in DMF | 0.00706 | 0.00795 | 0.00881 | 0.00971 | 0.0108 | 0.0119 | 0.0132 | 0.0143 | 0.0158 | 0.0175
in water | 2.63e-05 | 2.84e-05 | 3.06e-05 | 3.36e-05 | 3.72e-05 | 4.16e-05 | 4.62e-05 | 5.09e-05 | 5.66e-05 | 6.3e-05
